The values below come from patent publication US10023534B2 (BRISTOL-MYERS SQUIBB COMPANY, priority 2014, dated 2018).

pIC50: −log10 of the molar value. Read-outs that look alike come from different tables or passages of the source.

One assay deals with human recombinant Btk (Homo sapiens (Human), UniProt Q06187). The assay can be described thus: Human Recombinant Btk Enzyme Assay. The class given is biochemical. As for the experimental part: Human Recombinant Btk Enzyme Assay
To V-bottom 384-well plates were added test compounds, human recombinant Btk (1 nM, Invitrogen Corporation), fluoresceinated peptide (1.5 μM), ATP (20 μM), and assay buffer (20 mM HEPES pH 7.4, 10 mM MgCl2, 0.015% Brij 35 surfactant and 4 mM DTT in 1.6% DMSO), with a final volume of 30 μL. After incubating at room temperature for 60 min, the reaction was terminated by adding 45 μL of 35 mM EDTA to each sample. The reaction mixture was analyzed on the Caliper LABCHIP® 3000 (Caliper, Hopkinton, Mass.) by electrophoretic separation of the fluorescent substrate and phosphorylated product. […] Compounds were dissolved at 10 mM in DMSO and evaluated at eleven concentrations.

The next assay has as its system Ramos RA1 B cells. The assay can be described thus: Ramos FLIPR Assay (intracellular calcium flux, anti-human IgM stimulated). The class given is cell-based. The procedure:
Ramos FLIPR Assay […] Dye-loaded cells were pelleted (Beckmann GS-CKR, 1200 rpm, room temperature, 5 min) and resuspended at room temperature in RPMI minus phenol red with 50 mM HEPES and 10% FBS to a density of 1×10^6 cells/mL. 150 μL aliquots (150,000 cells/well) were plated into 96 well poly-D-lysine coated assay plates (BD 35 4640) and briefly centrifuged (Beckmann GS-CKR 800 rpm, 5 min, without brake). Next, 50 μL compound dilutions in 0.4% DMSO/RPMI minus phenol red+50 mM HEPES+10% FBS were added to the wells and the plate was incubated at room temperature in the dark for 1 hour. The assay plate was briefly centrifuged as above prior to measuring calcium levels. Using the […] (Molecular Devices), cells were stimulated by adding goat anti-human IgM (Invitrogen AHI0601) to 2.5 μg/mL. Changes in intracellular calcium concentrations were measured for 180 seconds and percent inhibition was determined relative to peak calcium levels seen in the presence of stimulation only. The Ramos assay measures the ability of a compound to move through the cell membrane into the cell interior. A lower IC50 value indicates a greater ability to move into the cell interior.
(A change in cytosolic calcium serves as a functional read-out for many receptors and channels.)

Setting [1] is: Table 3, ATP 20 μM, 60 min room temperature, read-out: Btk IC50 value.
Where [2] appears, read: Ramos, Table 3, calcium flux, goat anti-human IgM 2.5 μg/mL, read-out: Ramos IC50 value.
Where [3] appears, read: Homo sapiens, Ramos, Table 3, calcium flux, goat anti-human IgM 2.5 μg/mL, read-out: Ramos IC50 value.
Where [4] appears, read: Table 4, Comparative Example, read-out: Comparative Example Btk IC50.
Where [5] appears, read: Homo sapiens, Ramos, Table 4, Comparative Example, read-out: Comparative Example Ramos IC50.
Setting [6] is: Homo sapiens, Ramos, Table 4, read-out: Example Ramos IC50.

human recombinant Btk, sequence (Q06187 whole entry): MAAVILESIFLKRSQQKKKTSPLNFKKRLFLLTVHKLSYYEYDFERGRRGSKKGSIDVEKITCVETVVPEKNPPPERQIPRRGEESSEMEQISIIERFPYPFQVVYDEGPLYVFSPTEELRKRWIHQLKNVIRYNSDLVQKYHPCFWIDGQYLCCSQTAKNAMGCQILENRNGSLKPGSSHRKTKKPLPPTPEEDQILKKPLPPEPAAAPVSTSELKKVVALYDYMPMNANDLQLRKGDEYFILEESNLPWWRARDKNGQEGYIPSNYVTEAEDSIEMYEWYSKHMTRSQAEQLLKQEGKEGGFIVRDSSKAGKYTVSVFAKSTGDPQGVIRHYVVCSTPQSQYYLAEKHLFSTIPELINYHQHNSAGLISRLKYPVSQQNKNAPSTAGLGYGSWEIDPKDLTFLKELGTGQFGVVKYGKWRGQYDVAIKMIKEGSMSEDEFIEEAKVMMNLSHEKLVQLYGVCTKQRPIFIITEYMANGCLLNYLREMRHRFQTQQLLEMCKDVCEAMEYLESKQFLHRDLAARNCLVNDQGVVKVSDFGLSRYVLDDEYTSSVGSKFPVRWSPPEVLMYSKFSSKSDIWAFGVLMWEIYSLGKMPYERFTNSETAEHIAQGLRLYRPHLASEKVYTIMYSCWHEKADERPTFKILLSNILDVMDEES

As to `C=CC(=O)N1CCc2c(cccc2-c2c(F)cc(C(N)=O)c3[nH]c4c(c23)CC(F)(F)CC4)C1` (racemic) [Example 1, (RS)-5-(2-Acryloyl-1,2,3,4-tetrahydroisoquinolin-5-yl)-3,3,6-trifluoro-2,3,4,9-tetrahydro-1H-carbazole-8-carboxamide], the negative-log IC50 (pIC50) (as a rule, the IC50 on a negative log10 scale, so that one unit is a factor of ten) at human recombinant Btk (setting [1]) was 9.74; in the assay with Ramos RA1 B cells (setting [2]), 7.60. Regarding `C=CC(=O)N1CCOc2c(-c3c(F)cc(C(N)=O)c4[nH]c5ccccc5c34)cccc21` (racemic) [Example 3, (RS)-4-(4-acryloyl-3,4-dihydro-2H-benzo[b][1,4]oxazin-8-yl)-3-fluoro-9H-carbazole-1-carboxamide], the negative logarithm of the IC50 (pIC50) at human recombinant Btk (setting [1]) is 10.12; in the assay with Ramos RA1 B cells (setting [2]), 8.34. For the molecule `C=CC(=O)N1CCSc2c(-c3c(F)cc(C(N)=O)c4[nH]c5ccccc5c34)cccc21` (racemic) [Example 13, (RS)-4-(4-acryloyl-3,4-dihydro-2H-benzo[b][1,4]thiazin-8-yl)-3-fluoro-9H-carbazole-1-carboxamide], the pIC50 on human recombinant Btk (setting [1]) is 9.89; with Ramos RA1 B cells (setting [2]), 8.04.

With `C=CC(=O)N1CCc2c(cccc2-c2c(F)cc(C(N)=O)c3[nH]c4cc(CCO)ccc4c23)C1` (racemic) [Example 25, 4-(2-acryloyl-1,2,3,4-tetrahydroisoquinolin-5-yl)-3-fluoro-7-(2-hydroxyethyl)-9H-carbazole-1-carboxamide], the pIC50 was 8.82 on human recombinant Btk (setting [1]) and 7.55 in the assay on Ramos RA1 B cells (setting [2]). Consider `N#CN1CCc2c(cccc2-c2c(F)cc(C(N)=O)c3[nH]c4cc(CCO)ccc4c23)C1` (racemic) [Example 27, 4-(2-cyano-1,2,3,4-tetrahydroisoquinolin-5-yl)-3-fluoro-7-(2-hydroxyethyl)-9H-carbazole-1-carboxamide], for which the negative logarithm of the IC50 (pIC50) was 8.32 on human recombinant Btk (setting [1]) and 6.85 with Ramos RA1 B cells (setting [2]).

In the case of `C=CC(=O)N1CCc2c(cccc2-c2c(F)cc(C(N)=O)c3[nH]c4cc(C(=O)N(C)C)ccc4c23)C1` (racemic) [Example 28, 4-(2-acryloyl-1,2,3,4-tetrahydroisoquinolin-5-yl)-3-fluoro-N7,N7-dimethyl-9H-carbazole-1,7-dicarboxamide], the values for the pIC50 at human recombinant Btk (setting [1]) and in the assay with Ramos RA1 B cells (setting [2]) were 9.77 and 7.77, respectively. In the same order, the values of `C=CC(=O)N1CCc2c(cccc2-c2c(F)cc(C(N)=O)c3[nH]c4ccc(Cl)cc4c23)C1` (racemic) [Example 29, 4-(2-acryloyl-1,2,3,4-tetrahydroisoquinolin-5-yl)-6-chloro-3-fluoro-9H-carbazole-1-carboxamide] are 9.59 and 6.97. On the same counts, the results for `C=CC(=O)N1CCc2c(cccc2-c2c(F)cc(C(N)=O)c3[nH]c4ccncc4c23)C1` (racemic) [Example 31, 9-(2-acryloyl-1,2,3,4-tetrahydroisoquinolin-5-yl)-8-fluoro-5H-pyrido[4,3-b]indole-6-carboxamide] are 9.52 and 7.89. `C=CC(=O)N1CCc2c(cccc2-c2c(Cl)cc(C(N)=O)c3[nH]c4c(c23)CCCC4)C1` (racemic) [Example 32, 5-(2-acryloyl-1,2,3,4-tetrahydroisoquinolin-5-yl)-6-chloro-2,3,4,9-tetrahydro-1H-carbazole-8-carboxamide]: the results for the pIC50 on human recombinant Btk (setting [1]) and in the assay with Ramos RA1 B cells (setting [3]) were 9.22 and 7.34, respectively. Take `C=CC(=O)N1CCc2c(cccc2-c2c(Cl)cc(C(N)=O)c3[nH]c4c(c23)CNCC4)C1` (racemic) [Example 33, 9-(2-acryloyl-1,2,3,4-tetrahydroisoquinolin-5-yl)-8-chloro-2,3,4,5-tetrahydro-1H-pyrido[4,3-b]indole-6-carboxamide]: the pIC50 at human recombinant Btk (setting [1]) was 8.64. Regarding `C=CC(=O)N1CCc2c(cccc2-c2c(F)cc(C(N)=O)c3[nH]c4ccccc4c23)C1` (single isomer, unassigned) [Comparative Example 15, 4-(2-Acryloyl-1,2,3,4-tetrahydroisoquinolin-5-yl)-3-fluoro-9H-carbazole-1-carboxamide], the results for the negative-log IC50 (pIC50) on human recombinant Btk (setting [4]) and in the assay with Ramos RA1 B cells (setting [5]) were 8.40 and 7.14, respectively. As to `C=CC(=O)N1CCc2c(cccc2-c2c(F)cc(C(N)=O)c3[nH]c4c(c23)CC(F)(F)CC4)C1` (single isomer, unassigned) [Comparative Example 16, 5-(2-Acryloyl-1,2,3,4-tetrahydroisoquinolin-5-yl)-3,3,6-trifluoro-2,3,4,9-tetrahydro-1H-carbazole-8-carboxamide], the pIC50 on human recombinant Btk (setting [4]) was 8.35; with Ramos RA1 B cells (setting [5]), under 6.52. With `C=CC(=O)N1CCc2c(cccc2-c2c(F)cc(C(N)=O)c3[nH]c4cc(C(F)(F)F)ccc4c23)C1` (single isomer, unassigned) [Comparative Example 17, 4-(2-Acryloyl-1,2,3,4-tetrahydroisoquinolin-5-yl)-3-fluoro-7-(trifluoromethyl)-9H-carbazole-1-carboxamide], the negative-log IC50 (pIC50) is 7.85 at human recombinant Btk (setting [4]) and under 6.52 with Ramos RA1 B cells (setting [5]).

`C=CC(=O)N1CCOc2c(-c3c(F)cc(C(N)=O)c4[nH]c5ccccc5c34)cccc21` (single isomer, unassigned) [Comparative Example 18, 4-(4-Acryloyl-3,4-dihydro-2H-benzo[b][1,4]oxazin-8-yl)-3-fluoro-9H-carbazole-1-carboxamide]: the pIC50 at human recombinant Btk (setting [4]) is 8.82; with Ramos RA1 B cells (setting [5]), 7.19.

On to `C=CC(=O)N1CCc2c(cccc2-c2c(F)cc(C(N)=O)c3[nH]c4c(c23)CC[C@H](C(C)(C)O)C4)C1` (single isomer, unassigned) [Comparative Example 19], for which the negative-log IC50 (pIC50) with Ramos RA1 B cells (setting [5]) was under 6.52. In the case of `C=CC(=O)N1CCc2c(cccc2-c2c(F)cc(C(N)=O)c3[nH]c4c(c23)CCC(C(F)(F)F)C4)C1` (single isomer, unassigned) [Comparative Example 20, 5-(2-Acryloyl-1,2,3,4-tetrahydroisoquinolin-5-yl)-6-fluoro-2-(trifluoromethyl)-2,3,4,9-tetrahydro-1H-carbazole-8-carboxamide], in the assay with Ramos RA1 B cells (setting [5]), the pIC50 is under 6.52. Turning to `C=CC(=O)N1CCc2c(cccc2-c2c(F)cc(C(N)=O)c3[nH]c4c(c23)CCC(C(F)(F)F)C4)C1` (single isomer, unassigned) [Comparative Example 21, 5-(2-Acryloyl-1,2,3,4-tetrahydroisoquinolin-5-yl)-6-fluoro-2-(trifluoromethyl)-2,3,4,9-tetrahydro-1H-carbazole-8-carboxamide], the pIC50 with Ramos RA1 B cells (Table 4, Comparative Example, read-out: Comparative Example Ramos IC50) is under 6.52.

With `C=CC(=O)N1CCCOc2c(-c3c(F)cc(C(N)=O)c4[nH]c5cc(C(F)(F)F)ccc5c34)cccc21` (single isomer, unassigned) [Comparative Example 22, 4-(5-Acryloyl-2,3,4,5-tetrahydrobenzo[b][1,4]oxazepin-9-yl)-3-fluoro-7-(trifluoromethyl)-9H-carbazole-1-carboxamide], the pIC50 is 8.02 on human recombinant Btk (setting [4]) and 6.52 with Ramos RA1 B cells (setting [5]).

On to `C=CC(=O)N1CCc2c(cccc2-c2c(F)cc(C(N)=O)c3[nH]c4c(c23)CC[C@H](C(C)(C)O)C4)C1` (single isomer, unassigned) [Example 9], for which the negative logarithm of the IC50 (pIC50) in the assay on Ramos RA1 B cells (setting [3]) and in the assay with Ramos RA1 B cells (setting [6]) was 8.64 throughout. For the molecule `C=CC(=O)N1CCc2c(cccc2-c2c(F)cc(C(N)=O)c3[nH]c4c(c23)CCC(C(F)(F)F)C4)C1` (single isomer, unassigned) [Example 10, 5-(2-Acryloyl-1,2,3,4-tetrahydroisoquinolin-5-yl)-6-fluoro-2-(trifluoromethyl)-2,3,4,9-tetrahydro-1H-carbazole-8-carboxamide], the figures for the pIC50 with Ramos RA1 B cells (setting [3]) and in the assay on Ramos RA1 B cells (setting [6]) were 7.65 and 7.66, respectively.

For `C=CC(=O)N1CCc2c(cccc2-c2c(F)cc(C(N)=O)c3[nH]c4c(c23)CCC(C(F)(F)F)C4)C1` (single isomer, unassigned) [Example 11, 5-(2-Acryloyl-1,2,3,4-tetrahydroisoquinolin-5-yl)-6-fluoro-2-(trifluoromethyl)-2,3,4,9-tetrahydro-1H-carbazole-8-carboxamide], the negative logarithm of the IC50 (pIC50) with Ramos RA1 B cells (Table 3, calcium flux, goat anti-human IgM 2.5 μg/mL, read-out: Ramos IC50 value) was 7.79; in the assay with Ramos RA1 B cells (Table 4, read-out: Example Ramos IC50) it was 7.80. As to `C=CC(=O)N1CCc2c(cccc2-c2c(Cl)cc(C(N)=O)c3[nH]c4ccccc4c23)C1` (single isomer, unassigned) [Example 24], the pIC50 in the assay with Ramos RA1 B cells (setting [3]) was 8.52. As for `C=CC(=O)N1CCc2c(cccc2-c2c(Cl)cc(C(N)=O)c3[nH]c4ccccc4c23)C1` [Example 30], the negative-log IC50 (pIC50) in the assay on Ramos RA1 B cells (setting [3]) is 7.70.
